Results as given in article PMC4125821, “Crystal structures of the S6K1 kinase domain in complexes with inhibitors” (Journal of Structural and Functional Genomics, 2014).

Molecular target: T1, human S6K1 (RPS6KB1) protein, residues 1–421 with the T412E mutation (Homo sapiens, UniProt P23443, T412E)
T1 construct: the human S6K1 (RPS6KB1) protein, residues 1–421 with the T412E mutation; purchased Carna Biosciences (Kobe, Japan)
Test: Kinase mobility shift assay
Type: biochemical
Conditions: S6K1 residues 1–421, T412E mutation; 2 nM enzyme; 30 min pre-incubation; ATP 0.5 mM; FL-Peptide 26 1.5 μM
Method: The mobility shift assay was performed as reported. Briefly, the reaction buffer consisted of 50 mM Hepes (pH 7.4), containing 10 mM MgCl2, 0.01 %(w/v) Brij-35, 1 mM dithiothreitol (DTT), 1 %(v/v) Protease Inhibitor Cocktail Set V [Calbiochem (EMD Millipore), Darmstadt, Germany], 1 %(v/v) Phosphatase Inhibitor Cocktail Set III [Calbiochem (EMD Millipore), Darmstadt, Germany], and 0.6 %(v/v) DMSO. […] The S6K1 protein (final concentration of 2 nM) in the reaction buffer was first incubated with different concentrations of the compounds (0–10 μM) for 30 min. […] The kinase reactions were performed at room temperature, and stopped by the addition of termination buffer [50 mM Hepes buffer (pH 7.4), containing 140 mM EDTA and 0.01 %(w/v) Brij-35]. The phosphorylated and unphosphorylated peptides thus obtained were separated and quantified with a Lab-Chip EZ Reader II (PerkinElmer, MA). Data were fitted using a sigmoidal dose–response regression algorithm in GraphPad Prism (GraphPad Software, La Jolla, CA).

T1 sequence (P23443 1-421 T412E): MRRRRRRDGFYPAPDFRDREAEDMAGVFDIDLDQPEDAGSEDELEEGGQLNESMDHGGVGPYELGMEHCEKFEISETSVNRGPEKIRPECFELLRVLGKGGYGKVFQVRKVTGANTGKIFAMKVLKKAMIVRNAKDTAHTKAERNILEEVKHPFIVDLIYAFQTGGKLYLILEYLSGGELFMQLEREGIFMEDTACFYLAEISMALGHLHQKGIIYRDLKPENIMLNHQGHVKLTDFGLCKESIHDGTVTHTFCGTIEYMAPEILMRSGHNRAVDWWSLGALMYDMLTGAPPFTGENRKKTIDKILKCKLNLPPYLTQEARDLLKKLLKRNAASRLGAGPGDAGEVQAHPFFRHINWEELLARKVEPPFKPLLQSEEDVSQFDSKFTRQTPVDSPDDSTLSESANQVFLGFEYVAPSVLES

Row | IC50 [nM] | SMILES
1 | 33 | C1=C(c2c[nH]c3ccccc23)CCN(c2ncnc3[nH]ncc23)C1 [Compound F109, 4-[4-(1H-indol-3-yl)-3,6-dihydropyridin-1(2H)-yl]-1H-pyrazolo[3,4-d]pyrimidine]
2 | 206 | O=C(Nc1cccc(C(F)(F)F)c1)C1CCN(c2ncnc3[nH]cnc23)CC1 [Compound F179, 1-(9H-purin-6-yl)-N-[3-(trifluoromethyl)phenyl]piperidine-4-carboxamide]
3 | 232 | NS(=O)(=O)c1ccc(NC(=O)COC(=O)c2c3c(nc4ccccc24)CCCCC3)cc1 [Compound F176, 2-oxo-2-[(4-sulfamoylphenyl)amino]ethyl 7,8,9,10-tetrahydro-6H-cyclohepta[b]quinoline-11-carboxylate]
4 | 81 | c1ccc2[nH]c(C3CCN(c4ncnc5[nH]ncc45)CC3)nc2c1 [Compound F108, 4-[4-(1H-benzimidazol-2-yl)piperidin-1-yl]-1H-pyrazolo[3,4-d]pyrimidine]
5 | 567 | CC1CCc2nc3ccccc3c(C(=O)OC(C)C(=O)Nc3ccc(S(N)(=O)=O)cc3)c2C1 (centres unmarked) [Compound F177, 1-oxo-1-[(4-sulfamoylphenyl)amino]propan-2-yl-2-methyl-1,2,3,4-tetrahydroacridine-9-carboxylate]
